Test in all cases: In Vitro Kinase Assay
Holding throughout (conditions): pH 7

Assay [1] concerns the target Epidermal growth factor receptor (Homo sapiens, UniProt P00533). Here is the method: (§1) Inhibition of kinase activity against a variety of recombinant kinases [FLT3, FLT3 D835Y, anaplastic lymphoma kinase (ALK), insulin receptor, and epidermal growthfactor receptor (EGFR)] was measured using homogeneous time-resolved fluorescence (HTRF) assays [Choi et al., Bioorg. Med. Chem. Lett., 20:2033-2037]. Assays consist of enzymes mixed with serially diluted compounds and peptide substrates in a kinase reaction buffer (250 mM HEPES (pH 7.0), 0.5 mM orthovanadate, 0.05% bovine serum albumin, 0.1% NaN3). Following the addition of reagents for detection, the TR-FRET signal was measured using an EnVision multi-label reader (Perkin Elmer, Waltham, MA).

The next assay deals with Insulin receptor (Homo sapiens, UniProt P06213). Here is the method:
as §1

The target in assay [2] is ALK tyrosine kinase receptor (Homo sapiens, UniProt Q9UM73). Here is the method: as §1
Chain of ALK tyrosine kinase receptor (Q9UM73 whole entry): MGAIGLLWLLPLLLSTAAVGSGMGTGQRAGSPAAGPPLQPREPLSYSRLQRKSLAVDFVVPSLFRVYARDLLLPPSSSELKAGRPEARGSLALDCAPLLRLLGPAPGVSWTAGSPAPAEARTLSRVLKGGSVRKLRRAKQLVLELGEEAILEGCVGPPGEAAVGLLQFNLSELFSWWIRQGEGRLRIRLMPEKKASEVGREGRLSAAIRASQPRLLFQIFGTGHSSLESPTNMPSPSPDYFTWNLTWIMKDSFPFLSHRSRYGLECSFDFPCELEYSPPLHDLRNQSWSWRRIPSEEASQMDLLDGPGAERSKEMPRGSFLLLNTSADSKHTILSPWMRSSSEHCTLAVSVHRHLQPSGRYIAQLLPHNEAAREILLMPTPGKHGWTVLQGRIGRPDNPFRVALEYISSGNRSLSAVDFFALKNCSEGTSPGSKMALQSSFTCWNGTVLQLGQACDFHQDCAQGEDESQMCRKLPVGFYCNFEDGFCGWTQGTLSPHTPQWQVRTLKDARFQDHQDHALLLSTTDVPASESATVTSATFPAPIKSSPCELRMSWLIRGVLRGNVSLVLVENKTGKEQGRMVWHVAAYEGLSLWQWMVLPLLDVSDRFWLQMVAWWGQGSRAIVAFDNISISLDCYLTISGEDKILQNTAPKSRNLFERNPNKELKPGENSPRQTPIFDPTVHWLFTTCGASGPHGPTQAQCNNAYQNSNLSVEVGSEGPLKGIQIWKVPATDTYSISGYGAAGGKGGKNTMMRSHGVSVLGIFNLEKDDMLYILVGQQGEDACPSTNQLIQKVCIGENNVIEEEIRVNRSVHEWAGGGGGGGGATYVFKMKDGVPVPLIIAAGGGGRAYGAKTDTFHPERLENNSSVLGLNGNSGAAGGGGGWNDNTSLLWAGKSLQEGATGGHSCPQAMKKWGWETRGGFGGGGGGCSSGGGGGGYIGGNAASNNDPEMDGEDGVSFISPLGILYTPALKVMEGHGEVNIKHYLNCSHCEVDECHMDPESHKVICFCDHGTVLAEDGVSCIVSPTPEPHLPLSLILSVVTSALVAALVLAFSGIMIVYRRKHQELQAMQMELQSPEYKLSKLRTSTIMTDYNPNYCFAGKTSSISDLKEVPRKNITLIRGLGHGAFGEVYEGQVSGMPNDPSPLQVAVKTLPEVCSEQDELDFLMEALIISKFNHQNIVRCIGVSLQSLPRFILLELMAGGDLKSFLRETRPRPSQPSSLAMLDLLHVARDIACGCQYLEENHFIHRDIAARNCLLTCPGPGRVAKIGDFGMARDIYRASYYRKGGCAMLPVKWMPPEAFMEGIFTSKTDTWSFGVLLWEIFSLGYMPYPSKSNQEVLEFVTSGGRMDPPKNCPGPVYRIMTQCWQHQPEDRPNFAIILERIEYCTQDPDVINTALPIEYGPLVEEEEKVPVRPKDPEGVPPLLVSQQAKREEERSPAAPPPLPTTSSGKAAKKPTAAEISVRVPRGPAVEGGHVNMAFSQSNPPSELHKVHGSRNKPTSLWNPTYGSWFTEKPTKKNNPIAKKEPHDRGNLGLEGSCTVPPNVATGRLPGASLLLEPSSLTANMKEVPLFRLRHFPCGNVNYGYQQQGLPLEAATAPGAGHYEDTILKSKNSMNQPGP

Molecules are shown by their SMILES. Some results are limits rather than exact numbers.

Chain of Epidermal growth factor receptor (P00533 whole entry): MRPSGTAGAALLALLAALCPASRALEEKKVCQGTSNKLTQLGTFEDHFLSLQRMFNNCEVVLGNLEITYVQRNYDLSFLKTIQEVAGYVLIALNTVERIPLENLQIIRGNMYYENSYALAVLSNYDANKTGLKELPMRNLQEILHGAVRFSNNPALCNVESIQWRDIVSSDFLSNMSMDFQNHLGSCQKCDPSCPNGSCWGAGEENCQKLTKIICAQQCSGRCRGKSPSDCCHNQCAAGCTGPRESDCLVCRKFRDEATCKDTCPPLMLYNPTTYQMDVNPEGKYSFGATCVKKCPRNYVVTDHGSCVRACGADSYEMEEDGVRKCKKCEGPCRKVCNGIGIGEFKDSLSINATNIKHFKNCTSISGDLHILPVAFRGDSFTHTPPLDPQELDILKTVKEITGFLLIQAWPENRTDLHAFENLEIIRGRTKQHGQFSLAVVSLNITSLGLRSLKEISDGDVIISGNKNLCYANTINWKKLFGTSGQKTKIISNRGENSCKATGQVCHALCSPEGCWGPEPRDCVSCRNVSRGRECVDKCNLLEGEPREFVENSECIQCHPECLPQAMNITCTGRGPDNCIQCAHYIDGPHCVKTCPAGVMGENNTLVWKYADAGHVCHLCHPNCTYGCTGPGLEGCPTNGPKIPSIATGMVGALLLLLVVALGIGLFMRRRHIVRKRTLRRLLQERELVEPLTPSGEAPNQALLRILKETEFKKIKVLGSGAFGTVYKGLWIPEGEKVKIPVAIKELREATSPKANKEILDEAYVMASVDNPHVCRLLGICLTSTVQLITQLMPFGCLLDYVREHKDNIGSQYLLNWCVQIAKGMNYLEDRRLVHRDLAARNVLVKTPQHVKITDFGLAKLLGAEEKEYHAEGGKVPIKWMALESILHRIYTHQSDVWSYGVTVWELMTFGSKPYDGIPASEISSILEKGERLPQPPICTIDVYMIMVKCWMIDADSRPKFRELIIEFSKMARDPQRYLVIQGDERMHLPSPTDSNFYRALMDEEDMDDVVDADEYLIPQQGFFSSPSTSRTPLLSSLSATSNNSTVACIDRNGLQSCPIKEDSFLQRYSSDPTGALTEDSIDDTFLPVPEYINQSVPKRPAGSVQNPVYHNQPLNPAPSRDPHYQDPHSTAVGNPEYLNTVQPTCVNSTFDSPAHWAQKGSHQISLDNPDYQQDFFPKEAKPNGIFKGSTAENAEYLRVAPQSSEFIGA
Chain of Insulin receptor (P06213 28-758 limits assumed): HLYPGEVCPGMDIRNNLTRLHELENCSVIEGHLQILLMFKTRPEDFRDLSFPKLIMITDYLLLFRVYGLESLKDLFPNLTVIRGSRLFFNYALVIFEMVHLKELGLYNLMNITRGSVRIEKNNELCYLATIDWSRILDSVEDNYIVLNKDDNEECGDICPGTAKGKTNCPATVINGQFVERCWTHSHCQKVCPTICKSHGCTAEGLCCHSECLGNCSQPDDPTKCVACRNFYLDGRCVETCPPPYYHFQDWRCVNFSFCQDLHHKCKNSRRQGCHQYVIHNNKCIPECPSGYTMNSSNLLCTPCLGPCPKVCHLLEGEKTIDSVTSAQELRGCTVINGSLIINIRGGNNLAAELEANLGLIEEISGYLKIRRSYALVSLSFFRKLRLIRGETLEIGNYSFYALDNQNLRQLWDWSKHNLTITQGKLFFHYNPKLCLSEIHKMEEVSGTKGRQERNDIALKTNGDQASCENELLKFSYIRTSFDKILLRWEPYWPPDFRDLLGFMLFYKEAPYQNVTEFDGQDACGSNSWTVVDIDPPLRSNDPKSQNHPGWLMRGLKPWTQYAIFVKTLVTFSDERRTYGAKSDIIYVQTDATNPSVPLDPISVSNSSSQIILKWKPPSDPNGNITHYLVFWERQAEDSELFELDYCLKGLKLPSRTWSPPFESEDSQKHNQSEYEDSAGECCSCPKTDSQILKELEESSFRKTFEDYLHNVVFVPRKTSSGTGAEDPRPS
Chain of Insulin receptor (P06213 763-1382 limits assumed): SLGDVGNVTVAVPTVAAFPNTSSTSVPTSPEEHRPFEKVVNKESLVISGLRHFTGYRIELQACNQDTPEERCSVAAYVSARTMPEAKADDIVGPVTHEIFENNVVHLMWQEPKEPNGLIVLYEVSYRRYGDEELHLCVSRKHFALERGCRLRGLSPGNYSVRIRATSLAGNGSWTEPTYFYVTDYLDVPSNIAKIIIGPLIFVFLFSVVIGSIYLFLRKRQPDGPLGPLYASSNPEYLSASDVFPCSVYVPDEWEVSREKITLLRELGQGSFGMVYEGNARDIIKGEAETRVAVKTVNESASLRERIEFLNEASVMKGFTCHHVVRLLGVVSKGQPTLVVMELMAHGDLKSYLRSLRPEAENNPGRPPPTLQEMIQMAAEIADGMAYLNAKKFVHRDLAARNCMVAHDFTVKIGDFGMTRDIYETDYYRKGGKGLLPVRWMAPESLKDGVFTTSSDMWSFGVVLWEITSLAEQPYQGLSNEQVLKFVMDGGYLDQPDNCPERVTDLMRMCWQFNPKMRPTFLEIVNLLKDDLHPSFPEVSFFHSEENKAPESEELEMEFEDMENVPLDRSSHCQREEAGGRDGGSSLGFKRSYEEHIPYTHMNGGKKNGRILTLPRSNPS

Usually IC50 stands for the concentration that gives 50% inhibition. High values mean weaker potency in that assay, low ones greater potency in that assay. With `O=c1c2cc(O)c(O)cc2oc2cc(O)c(C3O[C@H](CO)[C@@H](O)[C@H](O)[C@H]3O)c(O)c12` (stereo partly drawn) [Mangiferin], the half-maximal inhibitory concentration (IC50) in assay [1] is over 10 µM; against Insulin receptor, over 10 µM; in assay [2], 0.81 µM.

(Values after BindingDB's records for doi:10.3109/14756366.2010.515215 (Gyeongsang National University, 2011).)
